Entries after “also recorded” stand apart in the source; their conditions may differ.
What was measured:
[1] = system: human embryonic lung (HEL) fibroblasts; assay: Minimum cytotoxic concentration, HEL cell morphology
[2] = system: thymidine kinase-deficient (TK−) HSV-1 KOS strain; format: cell-based, herpes simplex virus type 1; settings: HEL cell cultures; for Antiviral Activity EC50 HSV-1 TK (KOS): TK-deficient, ACV-resistant strain
HSV-1 (KOS) = assay: Anti-HSV-1; format: cell-based, herpes simplex virus type 1; settings: HEL cell cultures
HSV-2 (G) = assay: Anti-HSV-2; format: cell-based, herpes simplex virus type 2; settings: HEL cell cultures
carboxypeptidase Y = carboxypeptidase Y (Saccharomyces cerevisiae, UniProt P00729); assay: Carboxypeptidase Y-mediated cleavage monitored by 31P-NMR; format: in vitro ADME; settings: for time to complete conversion of the starting material: carboxypeptidase Y; for conversion of the starting material by carboxypeptidase Y: result in words
Sequence of carboxypeptidase Y (P00729 112-532): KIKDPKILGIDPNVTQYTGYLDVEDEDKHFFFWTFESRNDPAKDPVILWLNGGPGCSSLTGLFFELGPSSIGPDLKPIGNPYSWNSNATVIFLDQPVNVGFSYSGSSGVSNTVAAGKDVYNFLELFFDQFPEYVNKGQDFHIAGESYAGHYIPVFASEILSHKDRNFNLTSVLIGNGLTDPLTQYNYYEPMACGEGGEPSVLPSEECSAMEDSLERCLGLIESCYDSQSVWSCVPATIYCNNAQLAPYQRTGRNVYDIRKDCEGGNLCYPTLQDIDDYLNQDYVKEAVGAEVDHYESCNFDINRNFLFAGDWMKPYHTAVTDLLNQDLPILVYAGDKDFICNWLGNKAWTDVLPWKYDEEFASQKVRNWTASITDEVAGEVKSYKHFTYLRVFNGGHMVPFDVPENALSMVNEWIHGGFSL

SMILES	Cytotoxicity MCC ([1]; Table 3 (HSV assays)) [µM]	Cytotoxicity MCC ([1]; Table 4 (HCMV/VZV assays)) [µM]	Antiviral Activity EC50 HSV-1 TK (KOS) [2]	further results
CCC(C)(C)COC(=O)[C@H](C)NP(=O)(OCC(CO)CCn1cnc2c(OC)nc(N)nc21)Oc1cccc2ccccc12 (stereo partly drawn) [Compound 71]	100	≥50		
CC(C)(NP(=O)(OCC(CO)CCn1cnc2c(=O)[nH]c(N)nc21)Oc1cccc2ccccc12)C(=O)OCc1ccccc1 (stereo not drawn) [Compound 41]	>100	>50		
COC(=O)[C@H](C)NP(=O)(OCC(CO)CCn1cnc2c(OC)nc(N)nc21)Oc1cccc2ccccc12 (stereo partly drawn) [Compound 70]	≥100	≥50		
C[C@H](NP(=O)(OCC(CO)OCn1cnc2c(=O)[nH]c(N)nc21)Oc1cccc2ccccc12)C(=O)OCc1ccccc1 (stereo partly drawn) [Compound 28]	>100	>100	considerable activity	
CC(C)(NP(=O)(OCC(CO)OCn1cnc2c(=O)[nH]c(N)nc21)Oc1cccc2ccccc12)C(=O)OCc1ccccc1 (stereo not drawn) [Compound 22]	>100	>50		fold difference in EC50 values between HSV-1 TK+ and TK− strains [2]: < 2.5 fold
C[C@H](NP(=O)(OCC(COP(=O)(N[C@@H](C)C(=O)OCc1ccccc1)Oc1cccc2ccccc12)OCn1cnc2c(=O)[nH]c(N)nc21)Oc1cccc2ccccc12)C(=O)OCc1ccccc1 (stereo partly drawn) [Compound 18]		>50		fold difference in EC50 values between HSV-1 TK+ and TK− strains [2]: < 2.5 fold
C[C@H](NP(=O)(OCC(COP(=O)(N[C@@H](C)C(=O)OCc1ccccc1)Oc1ccccc1)OCn1cnc2c(=O)[nH]c(N)nc21)Oc1ccccc1)C(=O)OCc1ccccc1 (stereo partly drawn) [Compound 17]	>100	>100	considerable activity	
Nc1nc(O)c2ncn(CSC(CO)CO)c2n1 [Compound 3]				Antiviral Activity EC50 HSV-1 (KOS) (HSV-1 (KOS)): sub-micromolar activity; Antiviral Activity EC50 HSV-2 (G) (HSV-2 (G)): sub-micromolar activity
COc1nc(N)nc2c1ncn2CCC(CO)COP(=O)(N[C@@H](C)C(=O)OCc1ccccc1)Oc1cccc2ccccc12 (stereo partly drawn) [Compound 67]		>50	retention of some activity	
C[C@H](NP(=O)(OCC(CO)CCn1cnc2c(Cl)nc(N)nc21)Oc1ccccc1)C(=O)OCc1ccccc1 (mixture of isomers) [Compound 60]		>100		time to complete conversion of the starting material (carboxypeptidase Y): ≤ 0.5 h; conversion of the starting material by carboxypeptidase Y (carboxypeptidase Y): completely converted and full
C[C@H](NP(=O)(OCC(CO)CCn1cnc2c(=O)[nH]c(N)nc21)Oc1cccc2ccccc12)C(=O)OCc1ccccc1 (stereo partly drawn) [Compound 45]	>100	>50		conversion of the starting material by carboxypeptidase Y (carboxypeptidase Y): slow and incomplete conversion; also recorded: partial
CCCOC(=O)[C@H](C)NP(=O)(OCC(CO)CCn1cnc2c(OC)nc(N)nc21)Oc1cccc2ccccc12 (stereo partly drawn) [Compound 69]	100	≥50		time to complete conversion of the starting material (carboxypeptidase Y): ≤ 2 h; conversion of the starting material by carboxypeptidase Y (carboxypeptidase Y): complete conversion and full
CC(C)OC(=O)[C@H](C)NP(=O)(OCC(COP(=O)(N[C@@H](C)C(=O)OC(C)C)Oc1cccc2ccccc12)OCn1cnc2c(=O)[nH]c(N)nc21)Oc1cccc2ccccc12 (stereo partly drawn) [Compound 15, 2-amino-9-{[(1,3-dihydroxypropan-2-yl)oxy]methyl}-6,9-dihydro-1H-purin-6-one-[1-naphthyl(isopropoxy-L-alaninyl)] diphosphate]	≥100	>100	marginal activity	
CCCOC(=O)[C@H](C)NP(=O)(OCC(CCn1cnc2c(OC)nc(N)nc21)COP(=O)(N[C@@H](C)C(=O)OCCC)Oc1cccc2ccccc12)Oc1cccc2ccccc12 (stereo partly drawn) [Compound 63]	≥100	≥50		conversion of the starting material by carboxypeptidase Y (carboxypeptidase Y): fast conversion; also recorded: partial
C[C@H](NP(=O)(OCC(CCn1cnc2c(=O)[nH]c(/N=C/N(C)C)nc21)COP(=O)(N[C@@H](C)C(=O)OCc1ccccc1)Oc1cccc2ccccc12)Oc1cccc2ccccc12)C(=O)OCc1ccccc1 (stereo partly drawn) [Compound 31]			inactive	Antiviral Activity EC50 HSV-1 (KOS) (HSV-1 (KOS)): inactive; Antiviral Activity EC50 HSV-2 (G) (HSV-2 (G)): inactive
CCC(C)(C)COC(=O)[C@H](C)NP(=O)(OCC(CCn1cnc2c(OC)nc(N)nc21)COP(=O)(N[C@@H](C)C(=O)OCC(C)(C)CC)Oc1cccc2ccccc12)Oc1cccc2ccccc12 (stereo partly drawn) [Compound 64]	≥100			
C[C@H](NP1(=O)OCC(OCn2cnc3c(Cl)nc(N)nc32)CO1)C(=O)OCc1ccccc1 (stereo partly drawn) [Compound 75]				time to complete conversion of the starting material (carboxypeptidase Y): ≤ 1 h; conversion of the starting material by carboxypeptidase Y (carboxypeptidase Y): completely metabolised
CC(C)OC(=O)[C@H](C)NP(=O)(OCC(CO)OCn1cnc2c(=O)[nH]c(N)nc21)Oc1cccc2ccccc12 (stereo partly drawn) [Compound 16, 2-amino-9-{[(1,3-dihydroxypropan-2-yl)oxy]methyl}-6,9-dihydro-1H-purin-6-one-[1-naphthyl(isopropoxy-L-alaninyl)]phosphate]	>100	>100	marginal activity	conversion of the starting material by carboxypeptidase Y (carboxypeptidase Y): slow and incomplete conversion; also recorded: partial
COc1nc(N)nc2c1ncn2CCC(COP(=O)(N[C@@H](C)C(=O)OCc1ccccc1)Oc1ccccc1)COP(=O)(N[C@@H](C)C(=O)OCc1ccccc1)Oc1ccccc1 (stereo partly drawn) [Compound 61]		>50		
CC(C)(NP(=O)(OCC(COP(=O)(NC(C)(C)C(=O)OCc1ccccc1)Oc1cccc2ccccc12)OCn1cnc2c(=O)[nH]c(N)nc21)Oc1cccc2ccccc12)C(=O)OCc1ccccc1 (stereo not drawn) [Compound 21]	>100		considerable activity	
CC(C)(NP(=O)(OCC(CO)CCn1cnc2c(=O)[nH]c(N)nc21)Oc1ccccc1)C(=O)OCc1ccccc1 (stereo not drawn) [Compound 39]	>100	>50		
COc1nc(N)nc2c1ncn2CCC(COP(=O)(N[C@@H](C)C(=O)OCC(C)(C)C)Oc1cccc2ccccc12)COP(=O)(N[C@@H](C)C(=O)OCC(C)(C)C)Oc1cccc2ccccc12 (stereo partly drawn) [Compound 62]	≥100	≥20		
CC(=O)OCC(COP(=O)(N[C@@H](C)C(=O)OCc1ccccc1)Oc1ccccc1)OCn1cnc2c(Cl)nc(N)nc21 (stereo partly drawn) [Compound 77]				conversion of the starting material by carboxypeptidase Y (carboxypeptidase Y): quickly metabolised
CC(C)(NP(=O)(OCC(COP(=O)(NC(C)(C)C(=O)OCc1ccccc1)Oc1ccccc1)OCn1cnc2c(=O)[nH]c(N)nc21)Oc1ccccc1)C(=O)OCc1ccccc1 (stereo not drawn) [Compound 19]				fold difference in EC50 values between HSV-1 TK+ and TK− strains [2]: < 2.5 fold
COc1nc(N)nc2c1ncn2CCC(CO)COP(=O)(N[C@@H](C)C(=O)OCC(C)(C)C)Oc1cccc2ccccc12 (stereo partly drawn) [Compound 68]		>50	retention of some activity	
COc1nc(N)nc2c1ncn2CCC(CO)COP(=O)(N[C@@H](C)C(=O)OC1CCCCC1)Oc1cccc2ccccc12 (stereo partly drawn) [Compound 72]	≥100		retention of some activity	
